ChEMBL document CHEMBL6114934, “Guaiacol-chalcone and nitroguaiacol-chalcone derivatives: In vitro and in silico antibacterial evaluation” (2025)
≈ marks a conversion by molar mass, not a printed value. Calls of active or inactive are those of the source. The calls are words filed in the database; no cut-off is given here.

What was measured:
Klebsiella aerogenes = assay: Antibacterial activity against Klebsiella aerogenes at 256 ug/ml by broth microdilution method; format: functional, organism-based; settings: dose 256.0 µg/ml
Acinetobacter baumannii = assay: Antibacterial activity against Acinetobacter baumannii at 256 ug/ml by broth microdilution method; format: functional, organism-based; settings: dose 256.0 µg/ml
Pseudomonas aeruginosa = assay: Antibacterial activity against Pseudomonas aeruginosa at 256 ug/ml by broth microdilution method; format: functional, organism-based; settings: dose 256.0 µg/ml
Klebsiella pneumoniae = assay: Antibacterial activity against Klebsiella pneumoniae at 256 ug/ml by broth microdilution method; format: functional, organism-based; settings: dose 256.0 µg/ml
Staphylococcus aureus [1] = assay: Antibacterial activity against Staphylococcus aureus at 256 ug/ml by broth microdilution method; format: functional, organism-based; settings: dose 256.0 µg/ml
Staphylococcus aureus [2] = assay: Antibacterial activity against Staphylococcus aureus by broth microdilution method; format: functional
Staphylococcus aureus [3] = assay: Antibacterial activity against methicillin-resistant Staphylococcus aureus by broth microdilution method; format: functional
Staphylococcus aureus [4] = assay: Antibacterial activity against methicillin-resistant Staphylococcus aureus; format: functional
Staphylococcus aureus [5] = assay: Antibacterial activity against Staphylococcus aureus; format: functional

SMILES | Activity (Klebsiella aerogenes) | Activity (Acinetobacter baumannii) | Activity (Pseudomonas aeruginosa) | Activity (Klebsiella pneumoniae) | Activity (Staphylococcus aureus [1]) | MIC (Staphylococcus aureus [2]) [µg/mL] | MIC (Staphylococcus aureus [3]) [µg/mL] | MIC (Staphylococcus aureus [4]) [µg/mL] | MIC (Staphylococcus aureus [5]) [µg/mL]
COc1cc(C(=O)/C=C/c2cccc(C(F)(F)F)c2)ccc1O | inactive | inactive | inactive | inactive | inactive |  |  |  | 
CCOc1ccc(/C=C/C(=O)c2ccc(O)c(OC)c2)cc1 | inactive | inactive | inactive | inactive | Active | 16 (≈ 53.6 µM) | 32 (≈ 107 µM) |  | 
COc1cc(C(=O)/C=C/c2ccc(Cl)c(Cl)c2)ccc1O | inactive | inactive | inactive | inactive | inactive |  |  |  | 
COc1cc(C(=O)/C=C/c2ccc(Cl)cc2)cc([N+](=O)[O-])c1O | inactive | inactive | inactive | inactive | Active | 16 (≈ 47.9 µM) | 32 (≈ 95.9 µM) |  | 
COc1cc(C(=O)/C=C/c2ccc(F)cc2)ccc1O | inactive | inactive | inactive | inactive | inactive |  |  |  | 
CC(=O)N1N=C(c2cc(O)c(O)c([N+](=O)[O-])c2)CC1c1ccc(Cl)cc1 (centres undefined) |  |  |  |  |  |  |  | 32 (≈ 85.2 µM) | 0.5 (≈ 1.33 µM)
COc1cc(C(=O)/C=C/c2ccc([N+](=O)[O-])cc2)cc([N+](=O)[O-])c1O | inactive | inactive | inactive | inactive | Active | 32 (≈ 92.9 µM) | 64 (≈ 186 µM) |  | 
COc1cc(C(=O)/C=C/c2cccc(Cl)c2)ccc1O | inactive | inactive | inactive | inactive | inactive |  |  |  | 
COc1cc(C(=O)/C=C/c2cccc(Cl)c2)cc([N+](=O)[O-])c1O | inactive | inactive | inactive | inactive | Active | 16 (≈ 47.9 µM) | 64 (≈ 192 µM) |  | 
COc1cc(C(=O)/C=C/c2ccc(Cl)cc2Cl)cc([N+](=O)[O-])c1O | inactive | inactive | inactive | inactive | Active | 256 (≈ 695 µM) | 256 (≈ 695 µM) |  | 
COc1cc(C(=O)/C=C/c2ccc(Cl)cc2Cl)ccc1O | inactive | inactive | inactive | inactive | inactive |  |  |  | 
COc1cc(C(=O)/C=C/c2cccc(C(F)(F)F)c2)cc([N+](=O)[O-])c1O | inactive | inactive | inactive | inactive | Active | 32 (≈ 87.1 µM) | 64 (≈ 174 µM) |  | 
COc1cc(C(=O)/C=C/c2ccc(Cl)c(Cl)c2)cc([N+](=O)[O-])c1O | inactive | inactive | inactive | inactive | Active | 8 (≈ 21.7 µM) | 8 (≈ 21.7 µM) |  | 
COc1cc(C(=O)/C=C/c2cccc(F)c2)ccc1O | inactive | inactive | inactive | inactive | inactive |  |  |  | 
COc1cc(C(=O)/C=C/c2ccc(SC)cc2)ccc1O | inactive | inactive | inactive | inactive | inactive |  |  |  | 
O=C(/C=C/c1ccc(Cl)c(Cl)c1)c1cc(O)c(O)c([N+](=O)[O-])c1 |  |  |  |  |  |  |  | 16 (≈ 45.2 µM) | 1 (≈ 2.82 µM)
COc1cc(C(=O)/C=C/c2ccc(F)cc2)cc([N+](=O)[O-])c1O | inactive | inactive | inactive | inactive | Active | 64 (≈ 202 µM) | 64 (≈ 202 µM) |  | 
COc1cc(C(=O)/C=C/c2ccc(SC)cc2)cc([N+](=O)[O-])c1O | inactive | inactive | inactive | inactive | Active | 128 (≈ 371 µM) | > 256 |  | 
COc1cc(C(=O)/C=C/c2ccc(Br)cc2F)ccc1O | inactive | inactive | inactive | inactive | inactive |  |  |  | 
COc1cc(C(=O)/C=C/c2cccc(F)c2)cc([N+](=O)[O-])c1O | inactive | inactive | inactive | inactive | Active | 32 (≈ 101 µM) | 64 (≈ 202 µM) |  | 
COc1cc(C(=O)/C=C/c2ccc(Cl)cc2)ccc1O | inactive | inactive | inactive | inactive | inactive |  |  |  | 
